In ChEMBL document CHEMBL1201862, “PubChem BioAssay data set” (2004):
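Following 48 hours of exposure in 96-well plates, responses at five concentrations were used to interpolate endpoints linearly. At the GI50, growth is halved.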 Active and inactive are the calls of the source. No stated cut-off is given here; in the data, active = GI50 up to about 1.1 µM and inactive = higher.

Assays:
Test in all cases: DTP human tumour cell line panel, 48 h
SF-539 = system: SF-539
OVCAR-3 = system: OVCAR-3
HL-60 = system: HL-60
HCT-116 = system: HCT-116
NCI-H23 = system: NCI-H23
SNB-75 = system: SNB-75
A498 = system: A498
UACC-62 = system: UACC-62
SN12C = system: SN12C
HCT-15 = system: HCT-15
LOX IMVI = system: LOX IMVI
M14 = system: M14
NCI-H460 = system: NCI-H460
TK-10 = system: TK-10
COLO 205 = system: COLO 205
CAKI-1 = system: CAKI-1
NCI-H226 = system: NCI-H226

| Structure (SMILES) | GI50 (SF-539) | GI50 (OVCAR-3) | GI50 (HL-60) | GI50 (HCT-116) | GI50 (NCI-H23) | GI50 (SNB-75) | GI50 (A498) | GI50 (UACC-62) | GI50 (SN12C) | GI50 (HCT-15) [µM] | GI50 (LOX IMVI) | GI50 (M14) | GI50 (NCI-H460) | GI50 (TK-10) | GI50 (COLO 205) | GI50 (CAKI-1) | GI50 (NCI-H226) |
| --- | --- | --- | --- | --- | --- | --- | --- | --- | --- | --- | --- | --- | --- | --- | --- | --- | --- |
| COc1ccc(C2NC(c3ccc(OC)cc3)C(C)C(=O)C2C)cc1 (stereo unspecified) | > 100 µM (inactive) | > 100 µM (inactive) | > 100 µM (inactive) | 91.8 µM (inactive) | > 100 µM (inactive) | 34 µM (inactive) | > 100 µM (inactive) | > 100 µM (inactive) | > 100 µM (inactive) | > 100 | > 100 µM (inactive) | > 100 µM (inactive) | > 100 µM (inactive) | > 100 µM (inactive) | > 100 µM (inactive) |  |  |
| CCn1cc(/C=C/C(C)c2cn(CC)c(=O)[nH]c2=O)c(=O)[nH]c1=O (stereo unspecified) | > 100 µM (inactive) | > 100 µM (inactive) | > 100 µM (inactive) |  | > 100 µM (inactive) | 84.7 µM (inactive) |  | > 100 µM (inactive) | > 100 µM (inactive) | > 100 | > 100 µM (inactive) | > 100 µM (inactive) | > 100 µM (inactive) | > 100 µM (inactive) | > 100 µM (inactive) | > 100 µM (inactive) |  |
| O=C(NCCOCCO)c1ccc(O)cc1 | > 100 µM (inactive) |  | > 100 µM (inactive) | > 100 µM (inactive) | > 100 µM (inactive) |  | > 100 µM (inactive) | > 100 µM (inactive) | > 100 µM (inactive) | > 100 | > 100 µM (inactive) | > 100 µM (inactive) | > 100 µM (inactive) | > 100 µM (inactive) | > 100 µM (inactive) |  |  |
| NC(=O)Nc1c([N+](=O)[O-])cc(C(F)(F)F)cc1[N+](=O)[O-] | > 100 µM (inactive) | 28.8 µM (inactive) | 33.7 µM (inactive) | 59.4 µM (inactive) | 43.8 µM (inactive) |  | > 100 µM (inactive) | 19.4 µM (inactive) | > 100 µM (inactive) | 65.8 | 44.7 µM (inactive) | > 100 µM (inactive) | 48.1 µM (inactive) | > 100 µM (inactive) | 34.5 µM (inactive) | > 100 µM (inactive) | > 100 µM (inactive) |
| CC1(C)CCC(Sc2ccccc2)O1 (stereo unspecified) | > 100 µM (inactive) | > 100 µM (inactive) | > 100 µM (inactive) | > 100 µM (inactive) | > 100 µM (inactive) | 92 µM (inactive) | > 100 µM (inactive) | > 100 µM (inactive) | > 100 µM (inactive) | > 100 | > 100 µM (inactive) | > 100 µM (inactive) | > 100 µM (inactive) | > 100 µM (inactive) | > 100 µM (inactive) | > 100 µM (inactive) |  |
| Cc1cc(C)nc(NS(=O)(=O)c2ccc(Nc3c4ccc(Cl)cc4nc4c(C(=O)Nc5ccc(S(N)(=O)=O)cc5)cccc34)cc2)n1 | 17.2 µM (inactive) | 15.5 µM (inactive) |  | 16.6 µM (inactive) | 15.1 µM (inactive) | 20.3 µM (inactive) | 14.8 µM (inactive) | 25 µM (inactive) | 15 µM (inactive) | 17.9 | 16 µM (inactive) | 17.4 µM (inactive) | 17.1 µM (inactive) | 36.3 µM (inactive) |  |  |  |
| CCN(CC)CC(C(C)=O)C(c1ccccc1)c1c(O)c2ccccc2oc1=O (stereo unspecified) | > 100 µM (inactive) | > 100 µM (inactive) | > 100 µM (inactive) | > 100 µM (inactive) |  | 42.4 µM (inactive) | > 100 µM (inactive) | > 100 µM (inactive) | > 100 µM (inactive) | > 100 | > 100 µM (inactive) | > 100 µM (inactive) | > 100 µM (inactive) | > 100 µM (inactive) | > 100 µM (inactive) | > 100 µM (inactive) | > 100 µM (inactive) |
| O=C1OC(/C=C/c2ccccc2)C(=O)C1=O (stereo unspecified) | > 100 µM (inactive) |  | > 100 µM (inactive) |  | > 100 µM (inactive) | > 100 µM (inactive) | > 100 µM (inactive) | > 100 µM (inactive) |  | > 100 |  | > 100 µM (inactive) | > 100 µM (inactive) | > 100 µM (inactive) | > 100 µM (inactive) |  | > 100 µM (inactive) |
| c1ccc(/N=C2\c3ccccc3C3=NCCCN32)cc1 | 49.3 µM (inactive) | 75 µM (inactive) |  | 40.2 µM (inactive) | 41.5 µM (inactive) | 50.9 µM (inactive) | 43.2 µM (inactive) | 61.5 µM (inactive) | > 100 µM (inactive) | 35.6 | 47.1 µM (inactive) | > 100 µM (inactive) | 55.1 µM (inactive) | 50 µM (inactive) | 62.1 µM (inactive) | 27.1 µM (inactive) | 27.2 µM (inactive) |
